According to ChEMBL document CHEMBL5465560, “Selectivity Literature for EUbOPEN Chemogenomic Library” (2024):

Assays:
[1] = target: T1, PAN2-PAN3 deadenylation complex subunit PAN3 (Homo sapiens) (UniProt Q58A45); test: Selectivity interaction (ActivX KiNativ screen (kinase selectivity in THP-1 cell lysates)) EUB0000639a PAN3; type: subcellular; conditions: lysate
T1 sequence (whole entry): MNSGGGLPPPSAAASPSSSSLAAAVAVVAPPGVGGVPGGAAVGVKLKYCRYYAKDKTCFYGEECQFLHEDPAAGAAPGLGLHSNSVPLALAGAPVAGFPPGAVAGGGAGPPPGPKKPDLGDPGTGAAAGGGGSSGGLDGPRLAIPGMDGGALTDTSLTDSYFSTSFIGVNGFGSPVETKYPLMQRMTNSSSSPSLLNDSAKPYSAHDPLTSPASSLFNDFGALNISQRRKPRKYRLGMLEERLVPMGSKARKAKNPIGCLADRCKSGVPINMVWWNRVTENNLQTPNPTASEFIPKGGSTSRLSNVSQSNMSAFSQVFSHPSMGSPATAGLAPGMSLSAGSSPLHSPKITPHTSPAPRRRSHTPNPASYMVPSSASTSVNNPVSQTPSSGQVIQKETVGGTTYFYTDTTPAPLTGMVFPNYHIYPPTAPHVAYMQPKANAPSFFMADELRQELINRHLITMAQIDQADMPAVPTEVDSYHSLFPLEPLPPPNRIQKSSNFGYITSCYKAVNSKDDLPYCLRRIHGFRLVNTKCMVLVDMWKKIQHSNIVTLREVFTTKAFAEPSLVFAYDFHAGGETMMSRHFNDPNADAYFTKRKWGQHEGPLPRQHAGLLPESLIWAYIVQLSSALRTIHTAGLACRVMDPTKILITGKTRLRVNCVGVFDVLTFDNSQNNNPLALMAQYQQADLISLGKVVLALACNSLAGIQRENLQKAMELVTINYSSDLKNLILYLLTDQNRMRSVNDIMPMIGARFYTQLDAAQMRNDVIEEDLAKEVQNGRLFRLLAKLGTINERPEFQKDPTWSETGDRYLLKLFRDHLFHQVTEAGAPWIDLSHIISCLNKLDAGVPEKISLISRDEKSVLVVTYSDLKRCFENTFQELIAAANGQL

[2] = target: T2, Serine/threonine-protein kinase MAK (Homo sapiens) (UniProt P20794); test: Selectivity interaction (KinomeScan (DiscoverX)) EUB0000595a MAK; conditions: at 10 µM
T2 sequence (whole entry): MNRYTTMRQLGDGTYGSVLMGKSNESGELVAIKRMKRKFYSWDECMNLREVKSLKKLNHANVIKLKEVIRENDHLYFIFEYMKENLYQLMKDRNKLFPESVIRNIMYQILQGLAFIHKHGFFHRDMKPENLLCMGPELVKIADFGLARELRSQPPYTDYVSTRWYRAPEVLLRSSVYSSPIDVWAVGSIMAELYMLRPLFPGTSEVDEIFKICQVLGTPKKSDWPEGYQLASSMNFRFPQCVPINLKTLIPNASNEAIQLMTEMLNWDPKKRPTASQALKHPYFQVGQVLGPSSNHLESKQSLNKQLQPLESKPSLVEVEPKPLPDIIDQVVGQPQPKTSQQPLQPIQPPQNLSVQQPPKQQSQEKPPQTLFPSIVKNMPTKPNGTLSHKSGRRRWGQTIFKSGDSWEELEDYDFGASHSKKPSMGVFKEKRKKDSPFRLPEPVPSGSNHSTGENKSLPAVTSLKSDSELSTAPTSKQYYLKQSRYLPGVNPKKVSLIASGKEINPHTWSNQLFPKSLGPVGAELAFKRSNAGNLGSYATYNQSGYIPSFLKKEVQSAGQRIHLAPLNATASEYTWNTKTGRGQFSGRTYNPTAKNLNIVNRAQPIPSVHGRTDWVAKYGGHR

[3] = target: T3, Mitogen-activated protein kinase kinase kinase 13 (Homo sapiens) (UniProt O43283); test: Selectivity interaction (KinomeScan (DiscoverX)) EUB0000092b MAP3K13; conditions: at 10 µM
T3 sequence (whole entry): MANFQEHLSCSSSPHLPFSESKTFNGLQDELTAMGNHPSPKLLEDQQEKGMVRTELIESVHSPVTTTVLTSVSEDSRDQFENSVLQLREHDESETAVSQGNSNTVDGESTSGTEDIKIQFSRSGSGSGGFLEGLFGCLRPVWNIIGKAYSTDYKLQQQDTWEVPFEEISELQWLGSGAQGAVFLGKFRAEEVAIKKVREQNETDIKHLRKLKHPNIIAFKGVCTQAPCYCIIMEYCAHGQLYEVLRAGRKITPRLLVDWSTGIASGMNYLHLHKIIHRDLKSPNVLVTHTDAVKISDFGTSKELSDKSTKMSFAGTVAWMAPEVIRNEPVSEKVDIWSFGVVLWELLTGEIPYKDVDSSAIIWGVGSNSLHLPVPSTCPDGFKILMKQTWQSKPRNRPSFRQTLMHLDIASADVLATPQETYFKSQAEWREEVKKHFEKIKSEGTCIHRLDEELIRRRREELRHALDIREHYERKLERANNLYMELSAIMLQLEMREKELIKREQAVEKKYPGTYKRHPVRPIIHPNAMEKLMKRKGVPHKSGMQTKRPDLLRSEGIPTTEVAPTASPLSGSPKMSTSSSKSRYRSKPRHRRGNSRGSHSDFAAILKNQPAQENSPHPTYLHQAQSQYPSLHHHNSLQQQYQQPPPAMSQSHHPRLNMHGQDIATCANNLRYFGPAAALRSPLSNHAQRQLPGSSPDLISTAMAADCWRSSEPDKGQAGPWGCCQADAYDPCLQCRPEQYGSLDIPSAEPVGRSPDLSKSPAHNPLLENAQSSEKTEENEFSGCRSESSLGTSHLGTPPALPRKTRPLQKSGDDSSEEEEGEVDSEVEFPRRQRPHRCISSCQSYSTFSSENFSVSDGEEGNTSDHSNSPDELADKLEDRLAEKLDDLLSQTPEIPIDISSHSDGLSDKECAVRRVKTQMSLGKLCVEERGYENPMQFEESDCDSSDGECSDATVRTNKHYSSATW

[4] = target: Phosphorylase b kinase gamma catalytic chain, skeletal muscle/heart isoform (Homo sapiens) (UniProt Q16816); test: Selectivity interaction (KinomeScan (DiscoverX)) EUB0000618a PHKG1; conditions: at 10 µM
Phosphorylase b kinase gamma catalytic chain, skeletal muscle/heart isoform (Homo sapiens), sequence (Q16816 whole entry, looked up, canonical isoform): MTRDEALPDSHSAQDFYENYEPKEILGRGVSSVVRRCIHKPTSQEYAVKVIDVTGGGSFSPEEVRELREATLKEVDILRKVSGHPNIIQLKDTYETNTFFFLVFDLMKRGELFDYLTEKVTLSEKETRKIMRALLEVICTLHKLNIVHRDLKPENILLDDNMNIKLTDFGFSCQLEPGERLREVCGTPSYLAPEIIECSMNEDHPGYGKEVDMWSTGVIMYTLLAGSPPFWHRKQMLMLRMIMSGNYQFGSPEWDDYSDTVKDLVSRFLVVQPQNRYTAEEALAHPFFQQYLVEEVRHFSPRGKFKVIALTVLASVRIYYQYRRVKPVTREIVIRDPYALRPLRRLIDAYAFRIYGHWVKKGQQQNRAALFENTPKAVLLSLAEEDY

CC[C@@H]1[C@H](F)C(=O)N[C@@H]1COc1nccc2cc(C(N)=O)c(OC)cc12 [ZIMLOVISERTIB]
% of inhibition ([1]; at 0.01 µM): 20.4% | % of inhibition ([1]; at 0.04 µM): -4.3% | % of inhibition ([1]; at 0.2 µM): -4.4% | % of inhibition ([1]; at 1 µM): -2.8% | % of inhibition ([1]; at 5 µM): -19.6%

COCC(=O)NC/C=C/c1ccc2ncnc(Nc3ccc(Oc4ccc(C)nc4)c(C)c3)c2c1 [CP-724714]
% of control [2]: 90%

CCC(=O)N1CCN(c2ccc(-n3c(=O)ccc4cnc5ccc(-c6cnc7ccccc7c6)cc5c43)cc2C(F)(F)F)CC1
% of control [3]: 100%

O[C@H]1CC[C@H](Nc2ncc3nc(Nc4c(F)cc(F)cc4F)n([C@H]4CCOC4)c3n2)CC1
% of control [4]: 100%
